According to ChEMBL document CHEMBL1123343, “5-(Halomethyl)-2-pyranones as irreversible inhibitors of alpha-chymotrypsin” (J Med Chem, 1986):

Tests used:
Chymotrypsin-C = target: T1, Chymotrypsin-C (Homo sapiens, UniProt Q99895); test: Compound was tested for inhibition against alpha-chymotrypsin using N-acetyl tyrosine p-nitrophenyl ester; WI=Weak inhibition
T1 sequence (Q99895 whole entry): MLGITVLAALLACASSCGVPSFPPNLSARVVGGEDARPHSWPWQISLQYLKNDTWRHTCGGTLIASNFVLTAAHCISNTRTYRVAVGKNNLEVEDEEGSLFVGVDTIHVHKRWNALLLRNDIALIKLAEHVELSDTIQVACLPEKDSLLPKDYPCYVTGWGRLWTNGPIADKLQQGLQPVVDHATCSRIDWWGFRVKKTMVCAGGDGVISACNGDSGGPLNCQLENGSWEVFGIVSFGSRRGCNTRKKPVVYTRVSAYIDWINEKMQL

[1] = target: T2, Chymotrypsin-C (Homo sapiens) (UniProt Q99895)
T2 sequence (whole entry): T1 sequence (Q99895 whole entry)
Description: Inactivation rate constant (kinact) was determined by exposing Chymotrypsinogen to different concentrations of the purine and periodically diluting aliquots into an assay medium containing one of the chromogenic substrates; NI=No inactivation

[2] = target: T2, Chymotrypsin-C (Homo sapiens); remark: listed apart in the source
Description: Inactivation efficiency (I/E) was determined by incubating different ratios of pyrone and chymotrypsin for 18 hr and then assaying the surviving enzyme activity; NI=No inactivation

[3] = target: T2, Chymotrypsin-C (Homo sapiens); test: Inactivation efficiency (I/E) was determined by incubating different ratios of pyrone and […] for 18 hr and then assaying the surviving enzyme activity; NI=No inactivation
[4] = target: T2, Chymotrypsin-C (Homo sapiens); test: Inactivation rate constant (kinact) was determined by exposing chymotrypsin to different concentrations of the […] and periodically diluting aliquots into an assay medium containing one of the […]
[5] = target: T2, Chymotrypsin-C (Homo sapiens); remark: listed apart in the source
Description: Inactivation efficiency (I/E) was determined by incubating different ratios of pyrone and chymotrypsin for 18 h and then assaying the surviving Chymotrypsinogen enzyme activity

For `O=c1occ(CCl)cc1CCl`, the Ki (Chymotrypsin-C) was “Weak inhibition”, the K inact [1] was “No inactivation” and the I/E [2] was “No inactivation”.
For `Cc1oc(=O)c(Cc2cccc3ccccc23)cc1CCl`, the I/E [3] was “No inactivation”, the Ki (Chymotrypsin-C) was “Weak inhibition” and the K inact [1] was “No inactivation”.
In the case of `O=c1occ(CCl)cc1Cc1cccc2ccccc12`, the K inact [4] is reported as 0.085 min⁻¹, the Ki (Chymotrypsin-C) is reported as “Weak inhibition” and the I/E [5] is reported as 1.38.
